Values quoted from earlier work as cited in patent publication US6558656B2, “Oral and topical compositions and methods related thereto in the treatment of acne” (priority 2000, dated 2003).
Read-outs that look alike come from different tables or passages of the source. Where no end group is shown, it is not given here.

What was measured:
Candida albicans = settings: mice, injection
[1] = test system: C. albicans, Listeria monocytogenes, Pseudomonas aeruginosa, and Serratia marescens; settings: 5-fluorouracil (5FU)- or morphine-immunosuppressed mice, injection
[2] = test system: BCO, Candida, or Cryptococcus; settings: immunosuppressed mice infected with BCO
Newcastle disease virus = settings: mice infected with the Newcastle disease virus

**Q.** For `CC(C)(CO)[C@@H](O)C(=O)NCCC(=O)O` [Pantothenic acid], which effectiveness in acne (acne; dosage level of 10 grams per day) is on record?
**A.** The effectiveness in acne was “effective”.

**Q.** What does the source list for `CC1=C(/C=C/C(C)=C/C=C/C(C)=C/CO)C(C)(C)CCC1` [micellized Vitamin A, Vitamin A]?
**A.** toxicity (acne; in vivo): known toxicity; effectiveness in acne (acne; very high doses): moderately effective

**Q.** Which effectiveness in acne (acne; dosage levels of 100-300 mg per day) does the source give for `[Zn]` [Zinc] here?
**A.** The effectiveness in acne was “moderately effective”.

**Q.** For `CC1=C(/C=C/C(C)=C/C=C/C(C)=C\C(=O)O)C(C)(C)CCC1` [isotretinoin], which sebum production (acne; administered orally) is on record?
**A.** The sebum production was “decreasing sebum production”.

**Q.** And the side effects (acne; in vivo, po)?
**A.** Its side effects is “potential to induce sever birth defects”.

**Q.** What about the effectiveness in acne (acne; oral administration) of the same molecule?
**A.** The effectiveness in acne was “proven effective in the vast majority of cases”.

**Q.** With “thymosin α1 (SDAAVDTSSEITTKDLKEKKEVVEEAEN; not fully specified (N-terminus); ends and bridges not checked; UniProt P06454 2-29, looked up) [Tα1, an immunomodulatory peptide of 28 amino acids]” as the molecule, how does the “resistance to infection with Candida albicans” value (Candida albicans) read?
**A.** Its value is “increased resistance”.

**Q.** What about the “protection against opportunistic infections” value [1] of the same molecule?
**A.** The value was “protect”.

**Q.** And the survival rate [2]?
**A.** Its survival rate is “increased survival rate”.

**Q.** What about the “amount of interferon (IFN) produced” value (Newcastle disease virus) of the same molecule?
**A.** The value was “significant rise”.
